Laboratory results reported in patent publication US4868321A, “Isothiocyanate intermediates” (FMC Corporation, priority 1988, dated 1989).

Columns and labels:
Format in all cases: in vivo
[1] = test system: Barnyardgrass; assay: Postemergence Herbicidal Activity, Barnyardgrass; conditions: Echinochloa crus-galli, post-emergence
Source text: (§1) The herbicidal data in the following Tables 3 and 4 was obtained in the manner described in PCT published application no. […] In those tables, the test compounds are identified by numbers which correspond to those in Table 1, "kg/ha" is kilograms per hectare, and "% C" is percent control.

[2] = test system: Rice; assay: Postemergence Herbicidal Activity, Rice; conditions: Oryza sativa, post-emergence
Source text: as §1

[3] = test system: Cotton; assay: Postemergence Herbicidal Activity, Cotton; conditions: Gossypium hirsutum, post-emergence
Source text: (§2) The herbicidal data in the following Tables 3 and 4 was obtained in the manner described in PCT published application no. WO 85/01939, previously mentioned, usually employing solutions of the herbicidal compound in 50/50 acetone/water mixtures. In those tables, the test compounds are identified by numbers which correspond to those in Table 1, "kg/ha" is kilograms per hectare, and "% C" is percent control.

[4] = test system: Soybean; assay: Preemergence Herbicidal Activity, Soybean; conditions: Glycine max, pre-emergence
Source text: as §1

[5] = test system: Morningglory; assay: Preemergence Herbicidal Activity, Morningglory; conditions: Ipomoea, pre-emergence
Source text: as §2

[6] = test system: Field Corn; assay: Postemergence Herbicidal Activity, Field Corn; conditions: Zea mays, post-emergence
Source text: as §1

[7] = test system: Velvetleaf; assay: Preemergence Herbicidal Activity, Velvetleaf; conditions: Abutilon theophrasti, pre-emergence
Source text: as §2

[8] = test system: Velvetleaf; assay: Postemergence Herbicidal Activity, Velvetleaf; conditions: Abutilon theophrasti, post-emergence
Source text: as §2

[9] = test system: Green Foxtail; assay: Preemergence Herbicidal Activity, Green Foxtail; conditions: Setaria viridis, pre-emergence
Source text: as §1

[10] = test system: Morningglory; assay: Postemergence Herbicidal Activity, Morningglory; conditions: Ipomoea, post-emergence
Source text: as §2

[11] = test system: Barnyardgrass; assay: Preemergence Herbicidal Activity, Barnyardgrass; conditions: Echinochloa crus-galli, pre-emergence
Source text: as §1

[12] = test system: Wheat; assay: Preemergence Herbicidal Activity, Wheat; conditions: Triticum aestivum, pre-emergence
Source text: as §1

[13] = test system: Johnsongrass; assay: Postemergence Herbicidal Activity, Johnsongrass; conditions: Sorghum halepense, post-emergence
Source text: as §1

[14] = test system: Green Foxtail; assay: Postemergence Herbicidal Activity, Green Foxtail; conditions: Setaria viridis, post-emergence
Source text: as §1

[15] = test system: Field Corn; assay: Preemergence Herbicidal Activity, Field Corn; conditions: Zea mays, pre-emergence
Source text: as §1

[16] = test system: Field Bindweed; assay: Preemergence Herbicidal Activity, Field Bindweed; conditions: pre-emergence
Source text: as §2

[17] = test system: Field Bindweed; assay: Postemergence Herbicidal Activity, Field Bindweed; conditions: post-emergence
Source text: as §2

[18] = test system: Johnsongrass; assay: Preemergence Herbicidal Activity, Johnsongrass; conditions: Sorghum halepense, pre-emergence
Source text: as §1

[19] = test system: Rice; assay: Preemergence Herbicidal Activity, Rice; conditions: Oryza sativa, pre-emergence
Source text: as §1

[20] = test system: Wheat; assay: Postemergence Herbicidal Activity, Wheat; conditions: Triticum aestivum, post-emergence
Source text: as §1

[21] = test system: Soybean; assay: Postemergence Herbicidal Activity, Soybean; conditions: Glycine max, post-emergence
Source text: as §1

[22] = test system: Cotton; assay: Preemergence Herbicidal Activity, Cotton; conditions: Gossypium hirsutum, pre-emergence
Source text: as §2

CCCS(=O)(=O)Nc1cc(-n2nnn(CCCF)c2=O)c(F)cc1Cl [Compound 28, 1-[4-Chloro-2-fluoro-5-(N--propylsulfonylamino)phenyl]-1,4-dihydro-4-(3-fluoropropyl)-5H--tetrazol-5-one]
pest or weed control at 500 g/ha ([1]; 0.5 kg/ha): 100%
plant injury at 500 g/ha ([2]; 0.5 kg/ha): 70%
plant injury at 500 g/ha ([3]; 0.5 kg/ha): 100%
plant injury at 500 g/ha ([4]; 0.5 kg/ha): 0%
pest or weed control at 500 g/ha ([5]; 0.5 kg/ha): 100%
plant injury at 500 g/ha ([6]; 0.5 kg/ha): 40%
pest or weed control at 500 g/ha ([7]; 0.5 kg/ha): 100%
pest or weed control at 500 g/ha ([8]; 0.5 kg/ha): 100%
pest or weed control at 500 g/ha ([9]; 0.5 kg/ha): 90%
pest or weed control at 500 g/ha ([10]; 0.5 kg/ha): 100%
pest or weed control at 500 g/ha ([11]; 0.5 kg/ha): 95%
plant injury at 500 g/ha ([12]; 0.5 kg/ha): 30%
pest or weed control at 500 g/ha ([13]; 0.5 kg/ha): 95%
pest or weed control at 500 g/ha ([14]; 0.5 kg/ha): 100%
plant injury at 500 g/ha ([15]; 0.5 kg/ha): 30%
pest or weed control at 500 g/ha ([16]; 0.5 kg/ha): 100%
pest or weed control at 500 g/ha ([17]; 0.5 kg/ha): 100%
pest or weed control at 500 g/ha ([18]; 0.5 kg/ha): 70%
plant injury at 500 g/ha ([19]; 0.5 kg/ha): 70%
plant injury at 500 g/ha ([20]; 0.5 kg/ha): 60%
plant injury at 500 g/ha ([21]; 0.5 kg/ha): 30%
plant injury at 500 g/ha ([22]; 0.5 kg/ha): 100%

O=c1n(CCCF)nnn1-c1cc(NS(=O)(=O)C(F)(F)F)c(Cl)cc1Cl [Compound 35, 1-[2,4-Dichloro-5-(N--trifluoromethylsulfonylamino)phenyl]-4,5-dihydro-4-(3-fluoropropyl)-5H--tetrazol-5-one]
pest or weed control at 4000 g/ha ([1]; 4.0 kg/ha): 70%
plant injury at 4000 g/ha ([2]; 4.0 kg/ha): 80%
plant injury at 4000 g/ha ([3]; 4.0 kg/ha): 100%
plant injury at 4000 g/ha ([4]; 4.0 kg/ha): 80%
pest or weed control at 4000 g/ha ([5]; 4.0 kg/ha): 100%
plant injury at 4000 g/ha ([6]; 4.0 kg/ha): 70%
pest or weed control at 4000 g/ha ([7]; 4.0 kg/ha): 100%
pest or weed control at 4000 g/ha ([8]; 4.0 kg/ha): 100%
pest or weed control at 4000 g/ha ([9]; 4.0 kg/ha): 100%
pest or weed control at 4000 g/ha ([10]; 4.0 kg/ha): 100%
pest or weed control at 4000 g/ha ([11]; 4.0 kg/ha): 90%
plant injury at 4000 g/ha ([12]; 4.0 kg/ha): 70%
pest or weed control at 4000 g/ha ([13]; 4.0 kg/ha): 90%
pest or weed control at 4000 g/ha ([14]; 4.0 kg/ha): 100%
plant injury at 4000 g/ha ([15]; 4.0 kg/ha): 50%
pest or weed control at 4000 g/ha ([16]; 4.0 kg/ha): 100%
pest or weed control at 4000 g/ha ([17]; 4.0 kg/ha): 95%
pest or weed control at 4000 g/ha ([18]; 4.0 kg/ha): 95%
plant injury at 4000 g/ha ([19]; 4.0 kg/ha): 95%
plant injury at 4000 g/ha ([20]; 4.0 kg/ha): 40%
plant injury at 4000 g/ha ([21]; 4.0 kg/ha): 100%
plant injury at 4000 g/ha ([22]; 4.0 kg/ha): 100%

CCS(=O)(=O)N(c1cc(-n2nnn(CCCF)c2=O)c(F)cc1Br)S(=O)(=O)CC [Compound 22, 1-[4-bromo-2-fluoro-5-[bis(N--ehtylsulfonyl)amino]phenyl]-1,4-dihydro-4-(3-fluoropropyl)-5H--tetrazol-5-one]
pest or weed control at 1000 g/ha ([1]; 1.0 kg/ha): 100%
plant injury at 1000 g/ha ([2]; 1.0 kg/ha): 80%
plant injury at 1000 g/ha ([3]; 1.0 kg/ha): 100%
plant injury at 1000 g/ha ([4]; 1.0 kg/ha): 60%
pest or weed control at 1000 g/ha ([5]; 1.0 kg/ha): 100%
plant injury at 1000 g/ha ([6]; 1.0 kg/ha): 100%
pest or weed control at 1000 g/ha ([7]; 1.0 kg/ha): 100%
pest or weed control at 1000 g/ha ([8]; 1.0 kg/ha): 100%
pest or weed control at 1000 g/ha ([9]; 1.0 kg/ha): 100%
pest or weed control at 1000 g/ha ([10]; 1.0 kg/ha): 95%
pest or weed control at 1000 g/ha ([11]; 1.0 kg/ha): 100%
plant injury at 1000 g/ha ([12]; 1.0 kg/ha): 90%
pest or weed control at 1000 g/ha ([13]; 1.0 kg/ha): 100%
pest or weed control at 1000 g/ha ([14]; 1.0 kg/ha): 100%
plant injury at 1000 g/ha ([15]; 1.0 kg/ha): 95%
pest or weed control at 1000 g/ha ([16]; 1.0 kg/ha): 100%
pest or weed control at 1000 g/ha ([17]; 1.0 kg/ha): 95%
pest or weed control at 1000 g/ha ([18]; 1.0 kg/ha): 100%
plant injury at 1000 g/ha ([19]; 1.0 kg/ha): 80%
plant injury at 1000 g/ha ([20]; 1.0 kg/ha): 90%
plant injury at 1000 g/ha ([21]; 1.0 kg/ha): 95%
plant injury at 1000 g/ha ([22]; 1.0 kg/ha): 100%
